In patent US9512111B2, “N-sulfonylated tetrahydroquinolines and related bicyclic compounds for inhibition of RORγ activity and the treatment of disease” (Lycera Corporation, priority 2010, dated 2016):

Columns and labels:
RORγt = target: T1, RORγt (Homo sapiens, UniProt P51449); experiment: RORγ Reporter Assay (GAL4-UAS luciferase reporter in HEK293 cells); type: cell-based; conditions: benzoxazines, Table 9; HEK cells
T1 construct: The resulting GAL4-RORγt-LBD fusion construct was placed under the control of a constitutive cytomegalovirus (CMV) promoter; expressed in transfected cells; host or cells: HEK293
T1 sequence (P51449 269-508 limits assumed): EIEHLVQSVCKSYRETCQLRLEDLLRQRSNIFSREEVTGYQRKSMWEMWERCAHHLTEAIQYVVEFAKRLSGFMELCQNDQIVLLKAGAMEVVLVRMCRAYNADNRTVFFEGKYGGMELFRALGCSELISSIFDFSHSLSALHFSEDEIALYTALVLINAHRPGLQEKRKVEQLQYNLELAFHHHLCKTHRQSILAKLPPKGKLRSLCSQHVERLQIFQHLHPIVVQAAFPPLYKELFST
Experimental: Inhibition of RORγt in cells was determined using a GAL4-UAS reporter system in HEK293 cells employing a luciferase readout. The RORγt DNA binding domain (DBD) was replaced with the heterologous yeast GAL4 DBD using standard recombinant DNA methods. The resulting GAL4-RORγt-LBD fusion construct was placed under the control of a constitutive cytomegalovirus (CMV) promoter by cloning it into the CMV-driven mammalian expression vector pcDNA3.1+− (Promega Corporation, Madison, Wis.).
A transcriptional reporter expression construct was used to monitor GAL4-RORγ activity, which contained five copies of the GAL4 binding site enhancer (UAS) controlling expression of a firefly luciferase reporter. This construct, pGL4.31, is commercially available from Promega Corporation, Madison Wis. Both expression constructs were transfected in bulk into HEK-293 cells using standard lipid-based transfection techniques, which allowed the GAL4 RORγ-LBD fusion protein to drive expression of the luciferase reporter. Control transfections were performed with an empty pCDN3.1+ vector.
The next day, cells were plated into 384 well plates, test compound was added, and the plates were incubated overnight. […] Promega firefly assays kits were used to stabilize the luciferase signal, and the intensity of the luciferase signal was measured using an EnVision Multilabel Plate Reader (Perkin Elmer, Waltham, Mass.).
HEK 293 cells are transfected with GAL4-NR construct (CMV:NR-LBD in pcDNA3.1neo) and the pGL4.31 GAL4-luciferase reporter construct (Promega). For a background control, use empty pcDNA3.1neo and pGL4.31. Transfection protocol is for a single T75 flask performed with Minis Trans-It 293 reagent. A 60 μL aliquot of Trans-IT reagent at room temperature is added drop wise to 1.5 mL of Optimem (Invitrogen). The resulting solution is mixed by inversion and incubated for 5-20 minutes at room temperature. This reagent mixture is added to 10 μg of DNA (5 μg of each expression vector used at a concentration of 1 mg/mL). The solution is mixed by inversion and incubated at room temperature for 20 minutes.
While the Trans-IT reagent and DNA are incubating, harvest HEK-293 cells. Remove media from flasks via aspiration and add enough TrypLE Express (stable Trypsin-like reagent, Invitrogen) to cover the bottom of the flask. The mixture is incubated at room temperature until the cells are visibly loose in the flask (approximately 2-5 minutes). Add an equal volume of complete growth media, and then pipette to achieve a single cell suspension. Spin down 1×10^7 cells and re-suspend the cells in 10 mL of complete growth media (DMEM high glucose/10% dialyzed FBS/pen/strep; Invitrogen). The cells and transfection mixture are added to one T75 flask. The contents of the T75 flax are mixed and incubated overnight at 37° C. and 5% CO2.
After 16-24 hours, cells are harvested and plated for test compound screening. Cells may be harvested as described above. Next, cells are counted and an appropriate number of cells are spun down. Then, cells are aspirated and re-suspended in complete growth media at a concentration of 0.5×10^6 cells/mL to provide a cell suspension. Plate 20 μL of the cell suspension into a white, tissue-culture treated 384 well plate. (10,000 cells/well).
A 10 mM stock solution of test compound in dimethylsulfoxide (DMSO) was diluted to 500× the final test concentration in DMSO, then diluted to 5× the final test concentration with complete growth medium to provide the Test Compound Solution. The concentration of DMSO in the Test Compound Solution was […]. A 5 μL aliquot of Test Compound Solution was added to each test well in the 384 well plate previously plated with the cell suspension. Next, plates are spun briefly and incubated overnight at 37° C. and 5% CO2.
After 16-24 hours, the luciferase assay is performed. Plates and luciferase reagent (e.g. One-Glo® or Dual Glo®; Promega, Madison, Wis.) are brought to room temperature.

RORγ-LBD = target: T2, RORγ-LBD (Homo sapiens, UniProt P51449); experiment: RORγ-Ligand Binding Domain TR-FRET Assay; type: biochemical; conditions: benzoxazines, Table 9
T2 construct: HIS-tagged RORγ-LBD was recombinantly expressed in SF9 cells; made in house; host or cells: SF9 cells (baculovirus); unpurified lysate
T2 sequence (P51449 269-508 limits assumed): T1 sequence (P51449 269-508 limits assumed)
Summary of the method: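 IC50 derived from the 665 nm/615 nm emission ratio after 4 h to overnight incubation. Mixture: Sf9 lysate with His-tagged LBD (~10 nM final, not purified), SRC1-2 LXXLL biotin peptide at 450 nM, 2 nM europium anti-His antibody, 60 nM APC-streptavidin; buffer 25 mM HEPES pH 7.0, 100 mM NaCl, 0.01% Tween, 0.1% BSA.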

Compound	IC50 (RORγt) [µM]	IC50 (RORγ-LBD) [µM]
O=C(Nc1ccc2c(c1)N(S(=O)(=O)c1ccc(Cl)cc1)C[C@H](CO)O2)c1c(F)cccc1C(F)(F)F [VI-67]	< 15	< 15
CC(C)(C)CNCC1CN(S(=O)(=O)c2ccc(F)cc2)c2cc(NC(=O)c3c(F)cccc3Cl)ccc2O1 (centres unmarked) [VI-36]	< 15	< 15
N#Cc1cccc(S(=O)(=O)N2C[C@H](CN3CCCC3)Oc3ccc(NC(=O)c4c(F)cccc4Cl)cc32)c1 [Compound 21, (S)-2-Chloro-N-(4-((3-cyanophenyl)sulfonyl)-2-(pyrrolidin-1-ylmethyl)-3,4-dihydro-2H-benzo[b][1,4]oxazin-6-yl)-6-fluorobenzamide]	< 15	< 15
Cc1nn(C(F)F)cc1S(=O)(=O)N1C[C@H](CO)Oc2ccc(NC(=O)c3c(F)cccc3Cl)cc21 [VI-30]	< 15	< 15
CC(=O)NCC1CN(S(=O)(=O)c2ccc(F)cc2)c2cc(NC(=O)c3c(F)cccc3Cl)ccc2O1 (centres unmarked) [VI-39]	< 15	< 15
Cc1cccc(F)c1C(=O)Nc1ccc2c(c1)N(S(=O)(=O)c1cccc(C#N)c1)C[C@H](CO)O2 [VI-45]	< 15	< 15
N#Cc1cccc(S(=O)(=O)N2C[C@H](CO)Oc3ccc(NC(=O)c4c(F)cccc4Cl)cc32)c1 [Compound 20, (R)-2-Chloro-N-(4-((3-cyanophenyl)sulfonyl)-2-(hydroxymethyl)-3,4-dihydro-2H-benzo[b][1,4]oxazin-6-yl)-6-fluorobenzamide]	< 15	< 15
O=C(Nc1ccc2c(c1)N(S(=O)(=O)c1ccc(F)c(F)c1)C[C@H](CO)O2)c1c(F)cccc1Cl [VI-42]	< 15	< 15
CC1(C)CN(S(=O)(=O)c2ccc(F)cc2)c2cc(NC(=O)c3c(F)cccc3Cl)ccc2O1 [Compound 16, 2-Chloro-6-fluoro-N-(4-((4-fluorophenyl)sulfonyl)-2,2-dimethyl-3,4-dihydro-2H-benzo[b][1,4]oxazin-6-yl)benzamide]	< 15	< 15
CCOCC1CN(S(=O)(=O)c2ccc(F)cc2)c2cc(NC(=O)c3c(Cl)cccc3C(F)(F)F)ccc2O1 (centres unmarked) [Compound 15, 2-Chloro-N-[2-ethoxymethyl-4-(4-fluoro-benzenesulfonyl)-3,4-dihydro-2H-benzo[1,4]oxazin-6-yl]-6-trifluoromethyl-benzamide]	< 15	< 15
O=C(Nc1ccc2c(c1)N(S(=O)(=O)c1ccc(Cl)cc1)C[C@@H](CO)O2)c1c(F)cccc1C(F)(F)F [VI-51]	< 15	< 15
CC(C)NCC1CN(S(=O)(=O)c2ccc(F)cc2)c2cc(NC(=O)c3c(F)cccc3Cl)ccc2O1 (centres unmarked) [VI-35]	< 15	< 15
Cc1nn(C(F)F)cc1S(=O)(=O)N1C[C@H](C)Oc2ccc(NC(=O)c3c(F)cccc3Cl)cc21 [VI-12]	< 15	< 15
Cc1nn(C(F)F)cc1S(=O)(=O)N1C[C@H](C)Oc2ccc(NC(=O)c3c(F)cccc3F)cc21 [VI-8]	< 15	< 15
N#Cc1cccc(S(=O)(=O)N2C[C@H](CO)Oc3ccc(NC(=O)c4c(F)cccc4C(F)(F)F)cc32)c1 [VI-62]	< 15	< 15
Cc1nn(C(F)F)cc1S(=O)(=O)N1C[C@H](CO)Oc2ccc(NC(=O)c3c(Cl)cccc3C(F)(F)F)cc21 [VI-29]	< 15	< 15
COc1ccc(S(=O)(=O)N2C[C@H](CO)Oc3ccc(NC(=O)c4c(F)cccc4C(F)(F)F)cc32)cn1 [VI-25]	< 15	< 15

Results, then the compound that gave them:

IC50 (RORγt) [µM]	IC50 (RORγ-LBD) [µM]	Compound
< 15	< 15	O=C(Nc1ccc2c(c1)N(S(=O)(=O)c1ccc(F)cc1)C[C@@H](CO)O2)c1c(F)cccc1F [VI-110]
< 15	< 15	COCC1CN(S(=O)(=O)c2ccc(F)cc2)c2cc(NC(=O)c3c(F)cccc3F)ccc2O1 (centres unmarked) [VI-113]
< 15	< 15	CCOCC1CN(S(=O)(=O)c2cccc(C#N)c2)c2cc(NC(=O)c3c(F)cccc3Cl)ccc2O1 (centres unmarked) [VI-100]
< 15	< 15	O=C(Nc1ccc2c(c1)N(S(=O)(=O)c1ccc(F)c(F)c1)C[C@@H](CO)O2)c1c(F)cccc1F [VI-76]
< 15	< 15	COCC1CN(S(=O)(=O)c2ccc(F)c(F)c2)c2cc(NC(=O)c3c(F)cccc3F)ccc2O1 (centres unmarked) [VI-81]
< 15	< 15	O=C(Nc1ccc2c(c1)N(S(=O)(=O)c1ccc(F)cc1)C[C@@H](CO)O2)c1c(Cl)cccc1Cl [VI-106]
< 15	< 15	CCOCC1CN(S(=O)(=O)c2ccc(F)cc2)c2cc(NC(=O)c3c(F)cccc3Cl)ccc2O1 (centres unmarked) [VI-118]
< 15	< 15	CC(C)OCC1CN(S(=O)(=O)c2ccc(F)cc2)c2cc(NC(=O)c3c(Cl)cccc3Cl)ccc2O1 (centres unmarked) [VI-109]
< 15	< 15	CCOCC1CN(S(=O)(=O)c2ccc(Cl)cc2)c2cc(NC(=O)c3c(F)cccc3Cl)ccc2O1 (centres unmarked) [VI-93]
< 15	< 15	O=C(Nc1ccc2c(c1)N(S(=O)(=O)c1ccc(F)cc1)C[C@@H](CO)O2)c1c(Cl)cccc1C(F)(F)F [VI-122]
< 15	< 15	O=C(Nc1ccc2c(c1)N(S(=O)(=O)c1ccc(F)cc1)C[C@H](CO)O2)c1c(Cl)cccc1Cl [VI-83]
< 15	< 15	CCOCC1CN(S(=O)(=O)c2ccc(F)c(F)c2)c2cc(NC(=O)c3c(F)cccc3Cl)ccc2O1 (centres unmarked) [VI-89]
< 15	< 15	COCC1CN(S(=O)(=O)c2ccc(Cl)cc2)c2cc(NC(=O)c3c(Cl)cccc3C(F)(F)F)ccc2O1 (centres unmarked) [VI-91]
< 15	< 15	COCC1CN(S(=O)(=O)c2ccc(F)c(F)c2)c2cc(NC(=O)Cc3ccc(F)cc3)ccc2O1 (centres unmarked) [VI-78]
< 15	< 15	O=C(Nc1ccc2c(c1)N(S(=O)(=O)c1ccc(F)c(F)c1)C[C@@H](CO)O2)c1c(Cl)cccc1Cl [VI-73]
< 15	< 15	COCC1CN(S(=O)(=O)c2ccc(Cl)cc2)c2cc(NC(=O)c3c(Cl)cccc3Cl)ccc2O1 (centres unmarked) [VI-95]
< 15	< 15	COCC1CN(S(=O)(=O)c2ccc(Cl)cc2)c2cc(NC(=O)c3c(F)cccc3Cl)ccc2O1 (centres unmarked) [VI-96]
< 15	< 15	COCC1CN(S(=O)(=O)c2ccc(Cl)cc2)c2cc(NC(=O)c3c(F)cccc3F)ccc2O1 (centres unmarked) [VI-97]
< 15	< 15	COCC1CN(S(=O)(=O)c2ccc(F)cc2)c2cc(NC(=O)c3c(F)cccc3Cl)ccc2O1 (centres unmarked) [VI-119]
< 15	< 15	O=C(Nc1ccc2c(c1)N(S(=O)(=O)c1ccc(Cl)cc1)C[C@H](CO)O2)c1c(Cl)cccc1C(F)(F)F [VI-84]
